What all share (assay type): physicochemical
Data set [1] can be described thus: solubility in organic and aqueous solutions. Particulars: compared to modification B.
A short description of data set [2]: hygroscopicity of the crystal modifications.
A short description of data set [3]: stability of the crystal forms (bulk stability, thermodynamic stability). The following applies: solid form, storage.

These results are taken from US20060142566A1, “Enantioselective process for the preparation of both enantiomers of 10,11-dihydro-10-hydroxy-5h-dibenz[b,f]azepine-5-carboxamide and new crystal forms thereof” (priority 2002, published 2006).

In the case of `NC(=O)N1c2ccccc2CC(O)c2ccccc21` (single isomer, unassigned) [modification A, (R)- or (S)-10,11-dihydro-10-hydroxy-5H-dibenz[b,f]azepine-5-carboxamide], in data set [1], the solubility entry was “better soluble in organic and aqueous solutions than modification B”. For the same compound, the hygroscopicity result in data set [2] is “Neither modification A nor modification B are hygroscopic”.
Take `NC(=O)N1c2ccccc2CC(O)c2ccccc21` (single isomer, unassigned) [modification B, (R)- or (S)-10,11-dihydro-10-hydroxy-5H-dibenz[b,f]azepine-5-carboxamide]: the “stability of crystal form (thermodynamic)” value in data set [3] was “thermodynamically stable crystalline form”. Further, the hygroscopicity result in data set [2] is reported as “Neither modification A nor modification B are hygroscopic”.
